Test results taken from ChEMBL document CHEMBL3046669, “Insecticide resistance of the oriental fruit fly, Bactrocera dorsalis (Hendel) (Diptera: Tephritidae), in mainland China” (2011).
Converted amounts (≈) assume the structure as drawn.

Assays:
Assay type in all cases: functional
Bactrocera dorsalis [1] = test: Insecticidal activity against adult Bactrocera dorsalis NN08 assessed as mortality after 24 hr; details: NN08, 24 h
Bactrocera dorsalis [2] = test: Insecticidal activity against adult Bactrocera dorsalis CS07 assessed as mortality after 24 hr; details: CS07, 24 h
Bactrocera dorsalis [3] = test: Resistance ratio of LC50 for adult Bactrocera dorsalis ZJ07 to LC50 for adult Bactrocera dorsalis after 24 hr
Bactrocera dorsalis [4] = test: Insecticidal activity against adult Bactrocera dorsalis FZ07 assessed as mortality after 24 hr; details: FZ07, 24 h
Bactrocera dorsalis [5] = test: Resistance ratio of LC50 for adult Bactrocera dorsalis HZ07 to LC50 for adult Bactrocera dorsalis after 24 hr
Bactrocera dorsalis [6] = test: Insecticidal activity against adult Bactrocera dorsalis HZ08 assessed as mortality after 24 hr; details: HZ08, 24 h
Bactrocera dorsalis [7] = test: Insecticidal activity against adult Bactrocera dorsalis HK07 assessed as mortality after 24 hr; details: HK07, 24 h
Bactrocera dorsalis [8] = test: Resistance ratio of LC50 for adult Bactrocera dorsalis GZ08 to LC50 for adult Bactrocera dorsalis after 24 hr
Bactrocera dorsalis [9] = test: Resistance ratio of LC50 for adult Bactrocera dorsalis MM07 to LC50 for adult Bactrocera dorsalis after 24 hr
Bactrocera dorsalis [10] = test: Resistance ratio of LC50 for adult Bactrocera dorsalis WX07 to LC50 for adult Bactrocera dorsalis after 24 hr
Bactrocera dorsalis [11] = test: Resistance ratio of LC50 for adult Bactrocera dorsalis FZ08 to LC50 for adult Bactrocera dorsalis after 24 hr
Bactrocera dorsalis [12] = test: Resistance ratio of LC50 for adult Bactrocera dorsalis HY08 to LC50 for adult Bactrocera dorsalis after 24 hr
Bactrocera dorsalis [13] = test: Insecticidal activity against adult Bactrocera dorsalis MM07 assessed as mortality after 24 hr; details: MM07, 24 h
Bactrocera dorsalis [14] = test: Insecticidal activity against adult Bactrocera dorsalis FZ08 assessed as mortality after 24 hr; details: FZ08, 24 h
Bactrocera dorsalis [15] = test: Resistance ratio of LC50 for adult Bactrocera dorsalis NN07 to LC50 for adult Bactrocera dorsalis after 24 hr
Bactrocera dorsalis [16] = test: Insecticidal activity against adult Bactrocera dorsalis HZ07 assessed as mortality after 24 hr; details: HZ07, 24 h
Bactrocera dorsalis [17] = test: Resistance ratio of LC50 for adult Bactrocera dorsalis YJ08 to LC50 for adult Bactrocera dorsalis after 24 hr
Bactrocera dorsalis [18] = test: Insecticidal activity against adult Bactrocera dorsalis WX07 assessed as mortality after 24 hr; details: WX07, 24 h
Bactrocera dorsalis [19] = test: Resistance ratio of LC50 for adult Bactrocera dorsalis YJ07 to LC50 for adult Bactrocera dorsalis after 24 hr
Bactrocera dorsalis [20] = test: Insecticidal activity against adult Bactrocera dorsalis CH07 assessed as mortality after 24 hr; details: CH07, 24 h
Bactrocera dorsalis [21] = test: Insecticidal activity against adult Bactrocera dorsalis QY08 assessed as mortality after 24 hr; details: QY08, 24 h
Bactrocera dorsalis [22] = test: Insecticidal activity against adult Bactrocera dorsalis GZ08 assessed as mortality after 24 hr; details: GZ08, 24 h
Bactrocera dorsalis [23] = test: Insecticidal activity against adult Bactrocera dorsalis QY07 assessed as mortality after 24 hr; details: QY07, 24 h
Bactrocera dorsalis [24] = test: Insecticidal activity against adult Bactrocera dorsalis ZJ07 assessed as mortality after 24 hr; details: ZJ07, 24 h
Bactrocera dorsalis [25] = test: Resistance ratio of LC50 for adult Bactrocera dorsalis QY08 to LC50 for adult Bactrocera dorsalis after 24 hr
Bactrocera dorsalis [26] = test: Insecticidal activity against adult Bactrocera dorsalis assessed as mortality after 24 hr
Bactrocera dorsalis [27] = test: Insecticidal activity against adult Bactrocera dorsalis GZ07 assessed as mortality after 24 hr; details: GZ07, 24 h
Bactrocera dorsalis [28] = test: Resistance ratio of LC50 for adult Bactrocera dorsalis CS07 to LC50 for adult Bactrocera dorsalis after 24 hr
Bactrocera dorsalis [29] = test: Resistance ratio of LC50 for adult Bactrocera dorsalis FZ07 to LC50 for adult Bactrocera dorsalis after 24 hr
Bactrocera dorsalis [30] = test: Resistance ratio of LC50 for adult Bactrocera dorsalis HK08 to LC50 for adult Bactrocera dorsalis after 24 hr
Bactrocera dorsalis [31] = test: Insecticidal activity against adult Bactrocera dorsalis CS08 assessed as mortality after 24 hr; details: CS08, 24 h
Bactrocera dorsalis [32] = test: Insecticidal activity against adult Bactrocera dorsalis HY07 assessed as mortality after 24 hr; details: HY07, 24 h
Bactrocera dorsalis [33] = test: Insecticidal activity against adult Bactrocera dorsalis HY08 assessed as mortality after 24 hr; details: HY08, 24 h
Bactrocera dorsalis [34] = test: Resistance ratio of LC50 for adult Bactrocera dorsalis HK07 to LC50 for adult Bactrocera dorsalis after 24 hr
Bactrocera dorsalis [35] = test: Resistance ratio of LC50 for adult Bactrocera dorsalis HY07 to LC50 for adult Bactrocera dorsalis after 24 hr
Bactrocera dorsalis [36] = test: Resistance ratio of LC50 for adult Bactrocera dorsalis QY07 to LC50 for adult Bactrocera dorsalis after 24 hr
Bactrocera dorsalis [37] = test: Insecticidal activity against adult Bactrocera dorsalis T-R-45 assessed as mortality
Bactrocera dorsalis [38] = test: Insecticidal activity against adult Bactrocera dorsalis NN07 assessed as mortality after 24 hr; details: NN07, 24 h
Bactrocera dorsalis [39] = test: Resistance ratio of LC50 for adult Bactrocera dorsalis T-R-45 to LC50 for adult Bactrocera dorsalis
Bactrocera dorsalis [40] = test: Insecticidal activity against adult Bactrocera dorsalis MM08 assessed as mortality after 24 hr; details: MM08, 24 h
Bactrocera dorsalis [41] = test: Resistance ratio of LC50 for adult Bactrocera dorsalis CH07 to LC50 for adult Bactrocera dorsalis after 24 hr
Bactrocera dorsalis [42] = test: Resistance ratio of LC50 for adult Bactrocera dorsalis NN08 to LC50 for adult Bactrocera dorsalis after 24 hr
Bactrocera dorsalis [43] = test: Insecticidal activity against adult Bactrocera dorsalis HK08 assessed as mortality after 24 hr; details: HK08, 24 h
Bactrocera dorsalis [44] = test: Insecticidal activity against adult Bactrocera dorsalis YJ07 assessed as mortality after 24 hr; details: YJ07, 24 h
Bactrocera dorsalis [45] = test: Insecticidal activity against adult Bactrocera dorsalis YJ08 assessed as mortality after 24 hr; details: YJ08, 24 h
Bactrocera dorsalis [46] = test: Insecticidal activity against adult Bactrocera dorsalis T-R-48 assessed as mortality
Bactrocera dorsalis [47] = test: Resistance ratio of LC50 for adult Bactrocera dorsalis CS08 to LC50 for adult Bactrocera dorsalis after 24 hr
Bactrocera dorsalis [48] = test: Resistance ratio of LC50 for adult Bactrocera dorsalis MM08 to LC50 for adult Bactrocera dorsalis after 24 hr
Bactrocera dorsalis [49] = test: Resistance ratio of LC50 for adult Bactrocera dorsalis WX08 to LC50 for adult Bactrocera dorsalis after 24 hr
Bactrocera dorsalis [50] = test: Insecticidal activity against adult Bactrocera dorsalis WX08 assessed as mortality after 24 hr; details: WX08, 24 h
Bactrocera dorsalis [51] = test: Resistance ratio of LC50 for adult Bactrocera dorsalis T-R-48 to LC50 for adult Bactrocera dorsalis
Bactrocera dorsalis [52] = test: Resistance ratio of LC50 for adult Bactrocera dorsalis CH08 to LC50 for adult Bactrocera dorsalis after 24 hr
Bactrocera dorsalis [53] = test: Insecticidal activity against adult Bactrocera dorsalis CH08 assessed as mortality after 24 hr; details: CH08, 24 h
Bactrocera dorsalis [54] = test: Resistance ratio of LC50 for adult Bactrocera dorsalis HZ08 to LC50 for adult Bactrocera dorsalis after 24 hr
Bactrocera dorsalis [55] = test: Resistance ratio of LC50 for adult Bactrocera dorsalis GZ07 to LC50 for adult Bactrocera dorsalis after 24 hr

`COP(=O)(OC)C(O)C(Cl)(Cl)Cl` (stereo not drawn) [TRICHLORFON] gave an LC50 (Bactrocera dorsalis [1]) of 11.9 µg/mL (≈ 46.1 µM), an LC50 (Bactrocera dorsalis [2]) of 27.2 µg/mL (≈ 106 µM) and a RatioLC50 (Bactrocera dorsalis [3]) of 18.51. The LC50 (Bactrocera dorsalis [4]) was 19.8 µg/mL (≈ 76.8 µM), the RatioLC50 (Bactrocera dorsalis [5]) was 16.72 and the LC50 (Bactrocera dorsalis [6]) was 2.43 µg/mL (≈ 9.44 µM). The LC50 (Bactrocera dorsalis [7]) was 14.1 µg/mL (≈ 54.7 µM), the RatioLC50 (Bactrocera dorsalis [8]) was 8.87 and the RatioLC50 (Bactrocera dorsalis [9]) was 17.78. For the same compound, the RatioLC50 (Bactrocera dorsalis [10]) was 19.46, the RatioLC50 (Bactrocera dorsalis [11]) was 20.2 and the RatioLC50 (Bactrocera dorsalis [12]) was 21.19. It also gave an LC50 (Bactrocera dorsalis [13]) of 28.5 µg/mL (≈ 111 µM), an LC50 (Bactrocera dorsalis [14]) of 32.4 µg/mL (≈ 126 µM) and a RatioLC50 (Bactrocera dorsalis [15]) of 15.62. It also gave an LC50 (Bactrocera dorsalis [16]) of 26.8 µg/mL (≈ 104 µM), a RatioLC50 (Bactrocera dorsalis [17]) of 5.22 and an LC50 (Bactrocera dorsalis [18]) of 31.2 µg/mL (≈ 121 µM). For the same compound, the RatioLC50 (Bactrocera dorsalis [19]) was 5.25, the LC50 (Bactrocera dorsalis [20]) was 20.4 µg/mL (≈ 79.3 µM) and the LC50 (Bactrocera dorsalis [21]) was 11.8 µg/mL (≈ 45.8 µM). It also gave an LC50 (Bactrocera dorsalis [22]) of 14.2 µg/mL (≈ 55.3 µM), an LC50 (Bactrocera dorsalis [23]) of 18.5 µg/mL (≈ 71.9 µM) and an LC50 (Bactrocera dorsalis [24]) of 29.7 µg/mL (≈ 115 µM). The RatioLC50 (Bactrocera dorsalis [25]) was 7.34, the LC90 (Bactrocera dorsalis [26]) was 2.64 µg/mL (≈ 10.3 µM) and the LC50 (Bactrocera dorsalis [26]; Bactrocera dorsalis, 24 h) was 1.61 µg/mL (≈ 6.25 µM). The LC50 (Bactrocera dorsalis [27]) was 31.8 µg/mL (≈ 123 µM), the RatioLC50 (Bactrocera dorsalis [28]) was 16.96 and the RatioLC50 (Bactrocera dorsalis [29]) was 12.32. It also gave a RatioLC50 (Bactrocera dorsalis [30]) of 1.37, an LC50 (Bactrocera dorsalis [31]) of 28.2 µg/mL (≈ 110 µM) and an LC50 (Bactrocera dorsalis [32]) of 41.4 µg/mL (≈ 161 µM). For the same compound, the LC50 (Bactrocera dorsalis [33]) was 34 µg/mL (≈ 132 µM), the RatioLC50 (Bactrocera dorsalis [34]) was 8.77 and the RatioLC50 (Bactrocera dorsalis [35]) was 25.79. It also gave a RatioLC50 (Bactrocera dorsalis [36]) of 11.53, an LC90 (Bactrocera dorsalis [37]) of 322.86 µg/mL (≈ 1250 µM) and an LC50 (Bactrocera dorsalis [37]; Bactrocera dorsalis, T-R-45) of 93.9 µg/mL (≈ 365 µM). It also gave an LC50 (Bactrocera dorsalis [38]) of 25.1 µg/mL (≈ 97.4 µM), a RatioLC50 (Bactrocera dorsalis [39]) of 58.34 and an LC50 (Bactrocera dorsalis [40]) of 113 µg/mL (≈ 439 µM). It also gave a RatioLC50 (Bactrocera dorsalis [41]) of 12.71, a RatioLC50 (Bactrocera dorsalis [42]) of 7.39 and an LC50 (Bactrocera dorsalis [43]) of 2.21 µg/mL (≈ 8.58 µM). It also gave an LC50 (Bactrocera dorsalis [44]) of 8.43 µg/mL (≈ 32.7 µM), an LC50 (Bactrocera dorsalis [45]) of 8.38 µg/mL (≈ 32.6 µM) and an LC90 (Bactrocera dorsalis [46]) of 635.27 µg/mL (≈ 2470 µM). For the same compound, the LC50 (Bactrocera dorsalis [46]; Bactrocera dorsalis, T-R-48) was 115 µg/mL (≈ 448 µM), the RatioLC50 (Bactrocera dorsalis [47]) was 17.56 and the RatioLC50 (Bactrocera dorsalis [48]) was 70.45. The RatioLC50 (Bactrocera dorsalis [49]) was 14.13, the LC50 (Bactrocera dorsalis [50]) was 22.7 µg/mL (≈ 88.1 µM) and the RatioLC50 (Bactrocera dorsalis [51]) was 71.58. It also gave a RatioLC50 (Bactrocera dorsalis [52]) of 17.91, an LC50 (Bactrocera dorsalis [53]) of 28.7 µg/mL (≈ 112 µM) and a RatioLC50 (Bactrocera dorsalis [54]) of 1.51. The RatioLC50 (Bactrocera dorsalis [55]) was 19.8.
